Test results taken from patent US10899815B2, “Compositions and methods of using islet neogenesis peptides and analogs thereof” (SHENZHEN HIGHTIDE BIOPHARMACEUTICAL, LTD., priority 2013, dated 2021).
Ends that are not written are not given here.

What was measured:
[1] = Peptide stability in mouse plasma; assay type: in vitro ADME; conditions: 100 μg/mL, 37° C., LC-MS/MS, FIG. 3 and FIG. 5
Procedure: The stability of peptides was also tested in mouse and human plasma. Briefly, a certain amount of peptides and eucatropine powder (positive control) was accurately weighed. Test compounds were dissolved in 50% methanol-water solution and diluted to 20 mg/mL, and eucatropine was dissolved in dimethylsulfoxide (DMSO) and diluted to 10 mM, as a stock solution. Eucatropine stock solution was diluted to 0.2 mM with DMSO as a working solution. A stop reagent was prepared containing 200 ng/mL midazolam and tolbutamide in acetonitrile. A volume of 300 μL of stop solution was added to each well of a 96-well deep-well plate placed on ice beforehand.
For the stability studies, peptides and eucatropine were spiked into plasma respectively, mixed well, and then 100 μL of each mixture solution was transferred into the pre-cooled stop reagent as 0 time point sample. The remaining mixtures were incubated in a 37° C. water bath with shaking at 100 rpm (n=2). The final incubation concentration was 1 μM for eucatropine and 100 μg/mL for all test compounds.
At desired time points, 100 μl, of incubation mixture was transferred to the stop reagent to precipitate proteins. Samples were vortexed and centrifuged at RCF 5000-g for 10 minutes, and supernatant was transferred to a test plate. The samples were analyzed by LC-MS/MS.
Slope was calculated by plotting the natural logarithm of the percentage or remaining amount of test compounds and time, and T12 was calculated in accordance with the following formula.
For stability in mouse plasma, the incubation time was 0, 5, 15, 30 and 60 min for Peptide 1 and eucatropine, 0, 15, 30, 60, 120, 240 and 480 min for Peptide 12, Peptide 16 and Peptide 29.
In another stability study in mouse plasma, the incubation time was 0, 30, 60 and 120 min for Peptide 2 and eucatropine; 0, 30, 60, 120, 240 and 960 min for Peptide 52 and Peptide 54.

normal C57BL/6J mice = assay: Induction of small β-cell clusters in normal mice; assay type: in vivo; conditions: for body weight, blood glucose, plasma insulin, pancreas insulin, or pancreas weight: compared to saline group; for number of islets, islet size ranging from 2.1 to 0.7: normal female C57BL/6J mice, 25 mg/kg per day for 10 days, islet size as Log [μm^2], FIG. 7
Procedure: After a 1-week acclimation, C57BL/6J female mice were randomly divided into 4 groups. The two control groups received either 10 mL/kg sterile normal saline (n=4) or scrambled peptide (Peptide 3, 25 mg/kg) (n=5) via subcutaneous injection for 10 days. The other two groups received INGAP-PP (Peptide 1) or INGAP-PP analog Peptide 7 at a dose of 25 mg/kg per day respectively (n=7 per group) for the same period. Body weight and 6 hour fasting blood glucose were measured before treatment and after the last dosing of treatment. Plasma and pancreatic insulin were also measured at the end of the study. On day 11, the pancreas was removed from each animal, cleared of fat and lymph nodes, weighed, and fixed in 10% neutral buffered formalin (NBF) for no longer than 24 hours before processing for morphometric analysis.
Immunohistochemistry analysis was used to determine pancreatic islet size distribution.

pancreatic islets = assay: Glucose-stimulated insulin secretion (GSIS) of isolated islets; assay type: cell-based, Sprague-Dawley (SD) rats; conditions: rat islets, 12.0 mM glucose, 10 μg/mL peptide (GLP-1 100 nM), 60 min, FIG. 8
Procedure: The pancreases were procured from male adult Sprague-Dawley (SD) rats. After 7 days acclimation, the animals were sacrificed by cervical dislocation and the entire pancreas was removed and digested with collagenase to isolate islets. After digestion, islets were maintained at 37° C. in RPMI 1640 (Carlsbad, Calif., USA) pH 7.4, containing 10% (v/v) fetal calf serum, 1% penicillin/streptomycin, and 10 mM glucose in a humid atmosphere (5% CO2/95% O2), without the addition of any compound (control), or with the addition of 100 nM glucagon like peptide-1 (GLP-1); or 10 μg/mL Peptide 1, Peptide 12, or Peptide 16, as summarized in Table 4 below. Cultured islets were rinsed in Krebs-Ringer bicarbonate buffer (KRB), pH 7.4, previously gassed with a mixture CO2/O2 (5/95%), and pre-incubated in 1.0 ml KRB containing 0.5% (w/v) BSA and 1.5 mM glucose at 37° C. for 45 min. After this period, groups of 5 islets were incubated in 0.6 ml KRB with the addition of 1.5 or 12.0 mM glucose, with or without the addition of peptides for 60 min. At the end of the incubation period, aliquots of the medium were collected for insulin quantitation.

[2] = test system: STZ induced diabetic mice model; assay: Efficacy in streptozotocin (STZ) induced diabetic mice model; assay type: in vivo, C57BL/6J mice; conditions: for body weight or pancreas weight: 5 mg/kg or 25 mg/kg for 20 days
Procedure: After acclimatization in the animal facility for one week, 6-8 weeks old C57BL/6J mice were administered low dose STZ at 40 mg/kg in citrate buffer for 5 consecutive days to establish a TID animal model. Mice with blood glucose greater than 16.7 mmol/L at 5 days post last STZ injection were included in the study. These mice were then treated with INGAP-PP (Peptide 1) or Peptide 7 at the closes of 5 mg/kg (2.5 mg/kg, bid (twice a day)) or 25 mg/kg (12.5 mg/kg, bid) for 20 days before sacrifices. Two additional groups of diabetic mice were administered either saline or a peptide (Peptide 3) composed of a scrambled sequence of amino acids from Peptide 1 as control groups. Blood glucose and insulin levels were measured, and 20 days post the last dosing of test agents, an oral glucose tolerance test (OGTT) was performed in 6 hour fasted animals to determine the effect of Peptide 1 and Peptide 7. Blood samples obtained from the tail cut for glucose determination were detected with an ACCU-CHEK™ glucometer (Roche, ACCU-CHEK® Active), and insulin levels were determined with Rat/Mouse Insulin Elisa kit (Millipore, Billerica, Mass. USA). For the OGTT, after the measurement of the basal glucose concentration (T=−30 min), mice received an oral glucose challenge at 2 g/kg and glucose values were determined by glucometer at 0, 15, 30, 60, 90 and 120 min.

Pharmacokinetics in rat = assay type: in vivo, Sprague-Dawley (SD) rats; conditions: rat, in vivo, 25 mg/kg
Procedure: After 7 days acclimation, male Sprague-Dawley (SD) rats weighing 210-250 g, or male C57BL/6 mice, weighing 19-24 g, in good health were used in the study. Peptide 1, Peptide 12 and Peptide 16 were dissolved in sterile normal saline and then they were injected via subcutaneous (sc) bolus or intravenous (iv) bolus at the dose level of 25 mg/kg. Three animals in each group were used for blood collection at the time point of 5 min, 15 min, 30 min, 1 h, 2 h, 4 h, 6 h, 8 h and 24 h post-dose. Blood samples (approximately 400 μL) were collected and placed into tubes containing EDTA-K2 and centrifuged at 8000 rpm for 6 minutes at 4° C. to separate plasma front the samples. The resulting plasma was stored frozen at −80° C. until being analyzed. Plasma concentrations of peptides were determined using tandem mass spectrometry (LC-MS/MS) analysis. A non-compartmental module of WinNonlin® Professional 5.2 (Pharsight; St. Louis, Mo.), was used to calculate PK parameters. The abbreviation AUC(0-t) represents area under the curve front the time of dosing to the time of the last observation, the AUC(0-∞) represents area under the curve from the time of dosing to infinity, and the Cmax represents maximum concentration detected.

[3] = Peptide stability in culture medium; assay type: physicochemical; conditions: F-12K medium, 0.25 mg/mL, 37° C., 0-72 hours, HPLC, FIG. 2
Procedure: To determine the stability of peptides in culture medium, a certain amount of selected peptides was accurately weighed and dissolved in distilled water to 5 mg/mL as a stock solution. The stock solution was diluted to 0.25 mg/mL with F-12K medium (Gibco-BRL, Gaithersburg, Md., USA) as working solution. A volume of 100 μL of each working solution was transferred into individual sample vials. The sample vials were incubated in a 37° C. incubator for 0, 24, 48 and 72 hours before being analyzed and quantitated by HPLC.

ARIP cells = assay: ARIP cell proliferation (BrdU ELISA / CellTiter-Glo); assay type: cell-based, rat; conditions: 100 nM peptide, FIG. 1
Procedure: To measure cell proliferation, a bromodeoxyuridine (BrdU) ELISA assay was performed. Briefly, ARIP cells (ATCC (American Type Culture Collection), Manassas, Va. USA), a rat pancreatic ductal cell line, were cultured in F-12K medium (Gibco-BRL, Gaithersburg, Md., USA) containing 10% fetal bovine serum (FBS; HyClone, Thermo Fisher Scientific Inc.; Waltham, Mass. USA), 100 μg/ml streptomycin and 100 μg/ml penicillin in a cell incubator. ARIP cells were seeded into 96-well culture plates at 8000 or 0 (as blank control) cells/well in a volume of 50 μl cell culture medium and incubated overnight for the following experiments. On the second day, after replacing the medium with medium without serum, 50 μl serum-free cell culture medium containing test peptides at a series concentrations (final concentrations were 10 μM, 5 μM, 1 μM, 500 nM, 100 nM, 50 nM, 10 nM and 1 nM) were added to seeded cells. Medium without compound was added to negative control and background control wells. […] The absorbance at 450 nm (reference wavelength 690 nm) on an EnVision™ plate reader (Perkin Elmer, Boston, Mass.) within 5 min. after adding the stop solution was measured.
To test for cell viability, a CellTiter-Glo™ (CTG) assay (Promega, Madison, Wis.) was performed. […] Luminescence signal was quantified on an EnVision™ plate reader after a 10 minute incubation at room temperature.

[4] = normal mice, 25 mg/kg sc for 10 days

Ac-IGLHDPSHGTLPAGS-NH2 [Peptide 29, Ac-IGLHDPSHGTLPAGS-NH2]
stability in mouse plasma [1]: good stability in mouse plasma and were more stable than INGAP-PP

Ac-IGLHDPTQGTEPNGE-OH [Peptide 54, Ac-IGLHDPTQGTEPNGE-OH]
stability in mouse plasma [1]: good stability in mouse plasma and were significantly more stable than HIP

H-SHPNGSGTIGLHDPL-OH [Peptide 3, H-SHPNG SGTIG LHDPL-OH]
all parameters measured, versus normal saline (normal C57BL/6J mice; [4]): no difference
body weight, blood glucose, plasma insulin, pancreas insulin, or pancreas weight (normal C57BL/6J mice; [4]): did not affect

H-IGLHDPSHGTLPNGS-OH [Peptide 1, H-IGLHDPSHGTLPNGS-OH, reference compound]
glucose-stimulated insulin secretion versus islets without peptides (pancreatic islets): no stimulation
number of islets, islet size ranging from 2.1 to 0.7 (normal C57BL/6J mice): only observed in islet size of 2.1
body weight, blood glucose, plasma insulin, pancreas insulin, or pancreas weight (normal C57BL/6J mice; [4]): did not affect
body weight or pancreas weight [2]: did not affect

Ac-IGLHDPSHGTLPAGS-OH [Peptide 12, Ac-IGLHDPSHGTLPAGS-OH]
glucose-stimulated insulin secretion versus islets without peptides (pancreatic islets): released significantly more insulin
PK properties (AUC and Cmax) compared to INGAP-PP (Pharmacokinetics in rat): marked improved PK properties

Ac-IGLHDPTQGTEPAGE-OH [Peptide 52, Ac-IGLHDPTQGTEPAGE-OH]
stability in mouse plasma [1]: good stability in mouse plasma and were significantly more stable than HIP

H-IGLHAPSHGTLPAGS-OH [Peptide 8]
stability in culture medium [3]: significantly more stable than INGAP-PP peptide

GLP-1: Glucagon like peptide-1, positive control at 100 nM in GSIS (HAEGTFTSDVSSYLEGQAAKEFIAWLVKGR; ends and bridges not checked; UniProt P01275 98-127, looked up) [reference compound]
glucose-stimulated insulin secretion versus islets without peptides (pancreatic islets): released significantly more insulin

H-IGLHDPSHGTLPAGS-OH [Peptide 7, H-IGLHDPSHGTLPAGS-OH]
stability in culture medium [3]: significantly more stable than INGAP-PP peptide
percentage increase in cell number (ARIP cells): significantly higher percentage increase in cell number
number of islets, islet size ranging from 2.1 to 0.7 (normal C57BL/6J mice): increased significantly
body weight, blood glucose, plasma insulin, pancreas insulin, or pancreas weight (normal C57BL/6J mice; [4]): did not affect
body weight or pancreas weight [2]: did not affect
plasma insulin levels ([2]; 25 mg/kg dose group, end of 20-day period, FIG. 6B): significantly different from saline controls and almost restored to the level of the naive group
glucose tolerance (OGTT) ([2]; OGTT 2 g/kg glucose, day 21, FIG. 6C): improved glucose tolerance
